Source: patent publication US9708314B2, “Heterocyclic amide compound” (NISSAN CHEMICAL INDUSTRIES, LTD., priority 2013, dated 2017)

Assays:
Type in all cases: in vivo
Apera spica-venti. = experiment: Test Example 4: herbicidal effect by application to foliage (diluvial soil, plastic box); details: foliage application, 320 g/ha
Procedure, shortened: (§1)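 Plants were grown in sterilized diluvial soil in a greenhouse at 25-30° C for 14 days, then sprayed on stems and leaves with water-diluted emulsion formulation at set rates in g/ha. Weed control and crop injury were scored 3 weeks after treatment on a 0-5 herbicidal-ratio scale, from 0 (≤5%) to 5 (≥90%).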

[1] = tested on: Echinochloa crus-galli var. crus-galli; experiment: as above; details: foliage application, 320 g/ha
Procedure, shortened: as §1

Amaranthus retroflexus = experiment: as above; details: foliage application, 320 g/ha
Procedure, shortened: as §1

Chenopodium album = experiment: as above; details: foliage application, 320 g/ha
Procedure, shortened: as §1

Avena fatua = experiment: as above; details: foliage application, 320 g/ha
Procedure, shortened: as §1

Abutilon theophrasti = experiment: as above; details: foliage application, 320 g/ha
Procedure, shortened: as §1

Lolium multiflorum Lam. = experiment: as above; details: foliage application, 320 g/ha
Procedure, shortened: as §1

[2] = tested on: transplanted Oryza sativa; experiment: Test Example 1: effect on crop, application before weed generation in submerged conditions; details: Application herbicide amount 320 g/ha; Seventeenth Table
Procedure, shortened: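 Pre-emergence application to water surface of submerged pots (4 cm depth, alluvial soil) on sowing day, with 2.5-leaf rice transplanted; emulsion diluted to g/ha rates. Grown in greenhouse at 25–30 °C; 0–5 herbicidal/crop-effect score after three weeks.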

[3] = tested on: directly sowed Oryza sativa; experiment: Test Example 3: effect on crop by application to foliage (Wagner pot, water depth 0.1-0.5 cm); details: Nineteenth Table; application to foliage; application herbicide amount 320 g/ha
Procedure, shortened: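 Post-emergence foliar application at a stated g/ha rate to plants grown 14 days from seed in alluvial soil, greenhouse 25–30 °C. Visual score after 3 weeks: 0 (≤5% effect) through 5 (≥90%).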

Compound	L (Apera spica-venti.) herbicidal effect grade (Apera spica-venti.)	H (Echinochloa crus-galli var. crus-galli) herbicidal effect grade [1]	N (Amaranthus retroflexus) herbicidal effect grade (Amaranthus retroflexus)	O (Chenopodium album) herbicidal effect grade (Chenopodium album)	I (Avena fatua) herbicidal effect grade (Avena fatua)	M (Abutilon theophrasti) herbicidal effect grade (Abutilon theophrasti)	K (Lolium multiflorum Lam.) herbicidal effect grade (Lolium multiflorum Lam.)	a: transplanted Oryza sativa (effect on crop grade) [2]	b (effect on crop grade) [3]
CC(C)c1nnc2c(C(=O)Nc3nnnn3C)ccc(C(F)(F)C(F)(F)F)n12 [2-049]	4 (Herbicidal ratio of 70% or more and less than 90%)	5 (Herbicidal ratio of 90% or more (almost completely withered))	3 (Herbicidal ratio of 40% or more and less than 70%)	5 (Herbicidal ratio of 90% or more (almost completely withered))	3 (Herbicidal ratio of 40% or more and less than 70%)	4 (Herbicidal ratio of 70% or more and less than 90%)	3 (Herbicidal ratio of 40% or more and less than 70%)	3 (Herbicidal ratio of 40% or more and less than 70%)	1 (Herbicidal ratio of 5% or more and less than 20%)
CN(C)c1nnc2c(C(=O)Nc3nnnn3C)ccc(C(F)(F)F)n12 [2-051]	5 (Herbicidal ratio of 90% or more (almost completely withered))	5 (Herbicidal ratio of 90% or more (almost completely withered))	5 (Herbicidal ratio of 90% or more (almost completely withered))	5 (Herbicidal ratio of 90% or more (almost completely withered))	5 (Herbicidal ratio of 90% or more (almost completely withered))	5 (Herbicidal ratio of 90% or more (almost completely withered))	4 (Herbicidal ratio of 70% or more and less than 90%)	4 (Herbicidal ratio of 70% or more and less than 90%)	4 (Herbicidal ratio of 70% or more and less than 90%)
CSC(C)c1nnc2c(C(=O)Nc3nnnn3C)ccc(C(F)(F)F)n12 (stereo not drawn) [2-052]	5 (Herbicidal ratio of 90% or more (almost completely withered))	5 (Herbicidal ratio of 90% or more (almost completely withered))	5 (Herbicidal ratio of 90% or more (almost completely withered))	5 (Herbicidal ratio of 90% or more (almost completely withered))	5 (Herbicidal ratio of 90% or more (almost completely withered))	5 (Herbicidal ratio of 90% or more (almost completely withered))	5 (Herbicidal ratio of 90% or more (almost completely withered))	5 (Herbicidal ratio of 90% or more (almost completely withered))	5 (Herbicidal ratio of 90% or more (almost completely withered))
CC(c1nnc2c(C(=O)Nc3nnnn3C)ccc(C(F)(F)F)n12)[S+](C)[O-] (stereo not drawn) [2-053]	5 (Herbicidal ratio of 90% or more (almost completely withered))	5 (Herbicidal ratio of 90% or more (almost completely withered))	5 (Herbicidal ratio of 90% or more (almost completely withered))	5 (Herbicidal ratio of 90% or more (almost completely withered))	5 (Herbicidal ratio of 90% or more (almost completely withered))	5 (Herbicidal ratio of 90% or more (almost completely withered))	4 (Herbicidal ratio of 70% or more and less than 90%)	5 (Herbicidal ratio of 90% or more (almost completely withered))	5 (Herbicidal ratio of 90% or more (almost completely withered))
CC(c1nnc2c(C(=O)Nc3nnnn3C)ccc(C(F)(F)F)n12)S(C)(=O)=O (stereo not drawn) [2-054]	5 (Herbicidal ratio of 90% or more (almost completely withered))	5 (Herbicidal ratio of 90% or more (almost completely withered))	5 (Herbicidal ratio of 90% or more (almost completely withered))	5 (Herbicidal ratio of 90% or more (almost completely withered))	5 (Herbicidal ratio of 90% or more (almost completely withered))	5 (Herbicidal ratio of 90% or more (almost completely withered))	5 (Herbicidal ratio of 90% or more (almost completely withered))	5 (Herbicidal ratio of 90% or more (almost completely withered))	5 (Herbicidal ratio of 90% or more (almost completely withered))
Cn1nnnc1NC(=O)c1ccc(C(F)(F)F)n2c(Nc3ccccc3)nnc12 [2-056]	1 (Herbicidal ratio of 5% or more and less than 20%)	4 (Herbicidal ratio of 70% or more and less than 90%)	4 (Herbicidal ratio of 70% or more and less than 90%)	5 (Herbicidal ratio of 90% or more (almost completely withered))	1 (Herbicidal ratio of 5% or more and less than 20%)	4 (Herbicidal ratio of 70% or more and less than 90%)	1 (Herbicidal ratio of 5% or more and less than 20%)	1 (Herbicidal ratio of 5% or more and less than 20%)	4 (Herbicidal ratio of 70% or more and less than 90%)
CSCCc1nnc2c(C(=O)Nc3nnnn3C)ccc(C(F)(F)F)n12 [2-057]	4 (Herbicidal ratio of 70% or more and less than 90%)	5 (Herbicidal ratio of 90% or more (almost completely withered))	5 (Herbicidal ratio of 90% or more (almost completely withered))	5 (Herbicidal ratio of 90% or more (almost completely withered))	4 (Herbicidal ratio of 70% or more and less than 90%)	5 (Herbicidal ratio of 90% or more (almost completely withered))	4 (Herbicidal ratio of 70% or more and less than 90%)	4 (Herbicidal ratio of 70% or more and less than 90%)	5 (Herbicidal ratio of 90% or more (almost completely withered))
Cn1nnnc1NC(=O)c1ccc(C(F)(F)F)n2c(CC[S+](C)[O-])nnc12 (stereo not drawn) [2-058]	4 (Herbicidal ratio of 70% or more and less than 90%)	5 (Herbicidal ratio of 90% or more (almost completely withered))	5 (Herbicidal ratio of 90% or more (almost completely withered))	5 (Herbicidal ratio of 90% or more (almost completely withered))	5 (Herbicidal ratio of 90% or more (almost completely withered))	5 (Herbicidal ratio of 90% or more (almost completely withered))	4 (Herbicidal ratio of 70% or more and less than 90%)	5 (Herbicidal ratio of 90% or more (almost completely withered))	5 (Herbicidal ratio of 90% or more (almost completely withered))
Cn1nnnc1NC(=O)c1ccc(C(F)(F)F)n2c(CCS(C)(=O)=O)nnc12 [2-059]	4 (Herbicidal ratio of 70% or more and less than 90%)	5 (Herbicidal ratio of 90% or more (almost completely withered))	5 (Herbicidal ratio of 90% or more (almost completely withered))	5 (Herbicidal ratio of 90% or more (almost completely withered))	4 (Herbicidal ratio of 70% or more and less than 90%)	5 (Herbicidal ratio of 90% or more (almost completely withered))	4 (Herbicidal ratio of 70% or more and less than 90%)	5 (Herbicidal ratio of 90% or more (almost completely withered))	5 (Herbicidal ratio of 90% or more (almost completely withered))
Cn1nnnc1NC(=O)c1ccc(C(F)(F)F)n2c(-c3ccc(Cl)nc3)nnc12 [2-060]	4 (Herbicidal ratio of 70% or more and less than 90%)	5 (Herbicidal ratio of 90% or more (almost completely withered))	5 (Herbicidal ratio of 90% or more (almost completely withered))	5 (Herbicidal ratio of 90% or more (almost completely withered))	4 (Herbicidal ratio of 70% or more and less than 90%)	5 (Herbicidal ratio of 90% or more (almost completely withered))	3 (Herbicidal ratio of 40% or more and less than 70%)	5 (Herbicidal ratio of 90% or more (almost completely withered))	5 (Herbicidal ratio of 90% or more (almost completely withered))
